{"source": "ChEMBL document CHEMBL4725370", "about": "“Discovery of Proteolysis-Targeting Chimera Molecules that Selectively Degrade the IRAK3 Pseudokinase” (J Med Chem, 2020)", "key": {"CDK8/Cyclin C": {"biological_target": "CDK8/Cyclin C (Homo sapiens, UniProt P49336)", "sequence (P49336 whole entry)": "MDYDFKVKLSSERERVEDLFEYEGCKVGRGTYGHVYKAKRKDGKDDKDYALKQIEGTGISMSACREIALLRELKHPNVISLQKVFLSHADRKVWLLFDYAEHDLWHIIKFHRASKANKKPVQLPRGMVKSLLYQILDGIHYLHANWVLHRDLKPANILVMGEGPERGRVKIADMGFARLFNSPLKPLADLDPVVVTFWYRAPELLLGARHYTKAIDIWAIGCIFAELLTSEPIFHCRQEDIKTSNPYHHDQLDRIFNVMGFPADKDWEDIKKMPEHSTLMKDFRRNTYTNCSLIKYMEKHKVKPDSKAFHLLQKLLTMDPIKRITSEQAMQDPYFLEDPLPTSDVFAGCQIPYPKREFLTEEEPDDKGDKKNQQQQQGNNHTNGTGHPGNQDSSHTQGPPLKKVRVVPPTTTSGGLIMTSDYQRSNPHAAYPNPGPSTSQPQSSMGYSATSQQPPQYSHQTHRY", "sequence (P24863 whole entry, further chain)": "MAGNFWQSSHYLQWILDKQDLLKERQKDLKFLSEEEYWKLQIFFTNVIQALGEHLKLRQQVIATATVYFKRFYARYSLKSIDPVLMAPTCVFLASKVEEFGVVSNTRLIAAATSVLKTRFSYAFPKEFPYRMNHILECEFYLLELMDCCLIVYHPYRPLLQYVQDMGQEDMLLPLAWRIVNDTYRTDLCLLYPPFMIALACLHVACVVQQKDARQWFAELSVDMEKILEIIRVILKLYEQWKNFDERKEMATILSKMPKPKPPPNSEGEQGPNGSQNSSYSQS", "assay": "Inhibition of CDK8/cyclin C (unknown origin)", "type": "protein-complex assay"}, "[1]": {"biological_target": "Interleukin-1 receptor-associated kinase 1 (Homo sapiens, UniProt P51617)", "sequence (P51617 whole entry, the tested form may be a part)": "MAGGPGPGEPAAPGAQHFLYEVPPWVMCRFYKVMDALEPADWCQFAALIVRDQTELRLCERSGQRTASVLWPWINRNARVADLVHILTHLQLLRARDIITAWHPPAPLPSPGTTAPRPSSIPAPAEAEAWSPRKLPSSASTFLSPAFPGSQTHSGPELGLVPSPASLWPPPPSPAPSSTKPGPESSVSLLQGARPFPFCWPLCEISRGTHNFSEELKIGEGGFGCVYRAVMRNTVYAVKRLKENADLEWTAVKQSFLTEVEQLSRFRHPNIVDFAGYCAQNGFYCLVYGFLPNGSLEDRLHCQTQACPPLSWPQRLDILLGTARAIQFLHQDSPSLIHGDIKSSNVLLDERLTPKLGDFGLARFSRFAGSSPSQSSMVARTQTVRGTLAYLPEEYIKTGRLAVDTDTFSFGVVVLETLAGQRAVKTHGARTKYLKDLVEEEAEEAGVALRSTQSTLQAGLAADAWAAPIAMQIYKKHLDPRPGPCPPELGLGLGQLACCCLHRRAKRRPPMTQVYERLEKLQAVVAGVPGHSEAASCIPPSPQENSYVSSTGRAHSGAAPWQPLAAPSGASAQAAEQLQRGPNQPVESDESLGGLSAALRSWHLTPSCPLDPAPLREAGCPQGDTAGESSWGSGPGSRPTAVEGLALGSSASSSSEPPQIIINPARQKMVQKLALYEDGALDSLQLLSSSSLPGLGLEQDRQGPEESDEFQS", "assay": "Inhibition of recombinant human N-terminal GST-tagged IRAK1 (194 to 712 residues) expressed in baculovirus expression system using 5-FAM-KKKVSRSGLYRSPSMPENLNRPR-COOH as substrate measured after 240 mins by mobility shift assay"}, "[2]": {"biological_target": "T1, Protein cereblon/Interleukin-1 receptor-associated kinase 3 (Homo sapiens, UniProt Q9Y616+Q96SW2)", "assay": "Protac activity at CRBN/IRAK3 in LPS-induced human THP1 cells assessed as induction of IRAK3 degradation after 16 hrs by Western blot analysis relative to control", "type": "cell-based", "settings": "THP-1"}, "[3]": {"biological_target": "T1, Protein cereblon/Interleukin-1 receptor-associated kinase 3", "assay": "Protac activity at CRBN/IRAK3 in LPS-induced human THP1 cells assessed as induction of IRAK3 degradation after 16 hrs by Western blot analysis", "type": "cell-based", "settings": "thp-1"}, "[4]": {"biological_target": "Delta(24)-sterol reductase (Homo sapiens) (UniProt Q15392)", "sequence (Q15392 whole entry)": "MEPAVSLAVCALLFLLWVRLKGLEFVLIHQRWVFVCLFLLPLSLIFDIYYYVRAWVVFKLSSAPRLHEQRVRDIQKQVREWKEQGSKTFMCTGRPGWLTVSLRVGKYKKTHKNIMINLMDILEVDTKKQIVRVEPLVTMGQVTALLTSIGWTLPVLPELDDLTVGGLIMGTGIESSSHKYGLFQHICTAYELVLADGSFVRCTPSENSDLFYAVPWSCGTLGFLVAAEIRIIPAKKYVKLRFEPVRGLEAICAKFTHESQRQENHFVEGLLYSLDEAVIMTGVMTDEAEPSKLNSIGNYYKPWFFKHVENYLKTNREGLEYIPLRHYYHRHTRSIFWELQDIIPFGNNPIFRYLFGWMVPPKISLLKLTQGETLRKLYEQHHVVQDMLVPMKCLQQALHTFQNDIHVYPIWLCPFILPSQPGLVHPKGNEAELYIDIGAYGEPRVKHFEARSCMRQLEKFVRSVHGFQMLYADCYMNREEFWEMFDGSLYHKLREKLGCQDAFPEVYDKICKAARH", "assay": "Displacement of polymer supported probe 25 binding to DHCR24 in human THP-1 cell lysates at 30 uM preincubated for 45 mins under shaking condition followed by probe addition and measured after 30 mins by mass spectrometry based chemoproteomic analysis relative to control", "type": "subcellular"}, "[5]": {"biological_target": "Cereblon/Ikaros (Homo sapiens) (UniProt Q96SW2+Q13422)", "assay": "Protac activity at CRBN/IKZF1 in LPS-induced human THP1 cells assessed as induction of IKZF1 degradation at 0.1 uM measured after 6 hrs by HPLC-MS based global proteomic analysis", "type": "cell-based", "settings": "THP-1"}}, "note": "The source made the active and inactive calls. No cut-off for these calls is given here."}
{"smiles": "CC(C)c1ccn2ncnc(N[C@H]3CC[C@@H](N4CCN(C(=O)CCC(=O)N5CCC(CCN6CCN(c7ccc8c(c7)C(=O)N(C7CCC(=O)NC7=O)C8=O)CC6)CC5)CC4)CC3)c12", "note": "(stereo partly specified)", "values": [{"measurement": "IC50", "setting": "CDK8/Cyclin C", "result": 36, "unit": "nM"}, {"measurement": "IC50", "setting": "[1]", "result": 2300, "unit": "nM"}, {"measurement": "Emax", "setting": "[2]", "result": 98, "unit": "%"}, {"measurement": "DC50", "setting": "[3]", "result": 2, "unit": "nM"}, {"measurement": "inhibition", "setting": "[4]", "result": "< 40", "unit": "%"}, {"measurement": "Activity", "setting": "[5]", "result": "inactive"}]}
